Measured values published in US11326167B2, “Methods and compositions for treating atherosclerosis” (YALE UNIVERSITY, priority 2016, dated 2022).

Tests used:
[1] = system: primary human aortic smooth muscle cells (HASMCs); test: Immunoblot of p-Smad2 and SM-calponin in control and FRS2α knockdown HASMCs treated with SB431542; type: cell-based; conditions: SB431542 10 μM
Text: FIGS. 2A-2F are images and plots showing that FRS2α knockdown increases smooth muscle marker gene expression via the TGFβ pathway in primary human aortic smooth muscle cells (HASMCs). […] Blots are representative of four independent experiments. […] R-actin was used for sample loading normalization. […] FIGS. 2D-2F show immunoblots of smooth muscle markers, phosphorylated Smad2 (p-Smad2), and TGFβR1 expression in control and FRS2α knockdown HASMCs treated with SB431542 ([…]), TGFβR2 or Smad2 shRNA lentiviruses. Blots are representative of three independent experiments.
The TGFβR1 kinase inhibitor SB431542 (Sigma S4317) was reconstituted in DMSO (Sigma D2650) and used at a final concentration of 10 μM in cell culture.
Mouse Tgfbr1 and Tgfbr2 shRNA lentiviral constructs were purchased from Sigma. Human FGFR1, human Smad2 and human TGFβR2 shRNA lentiviral constructs were purchased from Sigma and human FRS2α shRNA lentiviral construct was purchased from Open Biosystems. For the production of shRNA lentivirus, 3.7 μg of A8.2, 0.2 μg of VSVG, and 2.1 μg of pLKO.1 carrying the control, FGFR1, FRS2α, Smad2, or TGFβR2 shRNA were co-transfected into 293T cells using X-tremeGENE 9 DNA Transfection Reagent (Roche 06365787001). Forty-eight hours later the medium was harvested, cleared by 0.45 μm filter (PALL Life Sciences PN4184), mixed with polybrene (5 μg/ml) (Sigma H9268), and applied to cells. […]

Apoe^−/− mice = test: Oil Red O atherosclerotic lesion area after 7C1-siTgfbr and/or rapamycin, 4 months of high fat diet; type: in vivo, mouse
Text: FIGS. 45A-45B are a graph and a series of images showing that 7C1-siTgfbr and rapamycin suppress atherosclerosis lesion development in Apoe^−/− mice after 4 months of high fat diet. FIG. 45A: Time frame of 7C1-siTgfbr1/Tgfbr2 lipid nanoparticle and rapamycin injections. FIG. 45B: Representative photomicrographs of Oil Red O-stained atherosclerotic lesions in PBS, 7C1-siLuciferase, DMSO, Rapamycin, or 7C1-siTgfbr treated mice.
FIG. 46 is a histogram illustrating the quantification of atherosclerotic lesions from FIG. 45B. Lesion area quantification. % Lesion area is the lesion area/total area of aorta. All data shown as mean±SD. (***p<0.001; one-way ANOVA with Newman-Keuls post hoc test for multiple comparison correction).
Apoe^−/− and Frs2^SMCKO/Apoe^−/− male mice were fed a Western diet (40% kcal % Fat, 1.25% Cholesterol, 0% Cholic Acid) for 8 or 16 weeks (Research Diets, product #D12108) starting at the age of 8 weeks. After 8 or 16 weeks of being fed a high-fat diet, mice were anesthetized and euthanized. […] The lesions located in the aorta, aortic roots and abdominal aorta were analyzed using Oil Red 0 staining. […] The surface lesion area was quantified with ImageJ software (NIH). […]
FIG. 46 is a histogram illustrating the quantification of atherosclerotic lesions from FIG. 45B. […]

[2] = system: Apoe^−/− and Frs2α^iECKO/Apoe^−/− mice; test: Tolerability of 7C1-let-7 injections: body weight, blood counts, serum lipids, organs, liver function, skin; type: in vivo, mouse; conditions: after 16 weeks on high cholesterol diet
Text: FIGS. 24A-24E are a series of graphs showing that 7C1-let-7 mimics treatment have no effect on mouse body weight and serum lipid profile. FIG. 24A: Time frame of gene inactivation and 7C1 lipid nanoparticle injections. FIG. 24B: Serum triglycerides, total cholesterol, and HDL-C levels from Apoe^−/− and Frs2^iECKO/Apoe^−/− mice after 16 weeks on a high cholesterol diet (NS: not significant by one-way ANOVA with Newman-Keuls post-hoc test). FIG. 24C: Individual body weights in each group were measured every week. FIGS. 24D-24E: qPCR analysis of let-7b and Tgfbr1 expression in lung endothelial cells after treatment with 7C1-let-7 particles. All data shown as mean±s.d. (*p<0.05; **p<0.01; ***p<0.001 compared with Luciferase; one-way ANOVA with Newman-Keuls post hoc test for multiple comparison correction). N=4-6 mice per group.
Serum was obtained through centrifugation of the blood for 2 min at 10,000 rpm at 4° C. and stored at −80° C. until each assay was performed. […]
A decline in let-7 miRs expression has been previously linked to activation of TGFβ signaling (Chen et al., 2012, Cell reports 2: 1684-1696; Chen et al, 2014 Science signaling 7, ra90). […] Measurements of the following were taken from mice in each group: body weight, complete blood counts, skin pictures, serum lipid profiles, organ weight, and whole aorta oil red-O staining and quantification (FIGS. 24C, 25, 23, 24B, 27, and 29).

For `NC(=O)c1ccc(-c2nc(-c3ccc4c(c3)OCO4)c(-c3ccccn3)[nH]2)cc1` [SB431542], the “FRS2α knockdown-induced increase in SM-calponin levels” value [1] was “effectively attenuated” and the “FRS2α knockdown-induced increase in p-Smad2 levels” value [1] was “effectively attenuated”.
For `CO[C@H]1C[C@@H]2CC[C@@H](C)[C@@](O)(O2)C(=O)C(=O)N2CCCC[C@H]2C(=O)O[C@H]([C@H](C)C[C@@H]2CC[C@@H](O)[C@H](OC)C2)CC(=O)[C@H](C)/C=C(\C)[C@@H](O)[C@@H](OC)C(=O)[C@H](C)C[C@H](C)/C=C/C=C/C=C/1C` [rapamycin], the “reduction in atherosclerotic lesion (% lesion area = lesion area/total area of aorta)” value (Apoe^−/− mice) was 58%.
“mi-let-7bH: heavily 2′-O-methyl modified double stranded let-7b miRNA mimic, 5p UGAGGuAGuAGGUUGUGUGGUU, 3p cuAuAcAAccuAcuGccuuccc” was tested, and the “serum triglycerides, total cholesterol and HDL cholesterol levels (serum lipid profile)” value [2] was “similar”.
In the case of “mi-let-7bL: lightly 2′-O-methyl modified double stranded let-7b miRNA mimic, 5p UGAGGuAGuAGGUUGUGUGGUU, 3p CuAuAcAACCuACUGCCUUCCC”, the “serum triglycerides, total cholesterol and HDL cholesterol levels (serum lipid profile)” value [2] is reported as “similar”.
